Eight molecules from PubChem BioAssay AID1259411 (Chemical Carcinogenesis Research Information System (CCRIS), 2018) can be followed below.

Activity calls are given as the source filed them. The rule behind the calls is not given here.

This data set concerns rodent carcinogenicity bioassays, tumor incidence. Kind of data set: CCRIS carcinogenicity studies. The note with it: Dose: 0, Dose: 0. The gist of the method: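 NCI-built, expert-reviewed records of carcinogenicity and related test outcomes (mutagenicity, tumor promotion/inhibition) compiled from published and report sources, historical span 1985-2011, not updated.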

In the case of `ClC(Cl)(Cl)C(Cl)(Cl)Cl`, the carcinogen call runs as follows: (Species: MOUSE, Strain/Sex: B6C3F1/FEMALE, Route: GAVAGE, 590, 1179 MG/KG, TWA, 590, 1179 MG/KG, TWA, Tumor Site: Type of Lesion: LIVER: HEPATOCELLULAR CARCINOMA) “active; positive”; (Species: MOUSE, Strain/Sex: B6C3F1/MALE, Route: GAVAGE, 590, 1179 MG/KG, TWA, 590, 1179 MG/KG, TWA, Tumor Site: Type of Lesion: LIVER: HEPATOCELLULAR CARCINOMA) “active; positive”; (Species: RAT, Strain/Sex: F344/F, Route: GAVAGE, 80, 160 MG/KG IN CORN OIL 5D/WK FOR 103 WK (STUDY DURATION: 105 WK), 80, 160 MG/KG IN CORN OIL 5D/WK FOR 103 WK (STUDY DURATION: 105 WK)) “inactive; negative”; (Species: RAT, Strain/Sex: F344/M, Route: GAVAGE, 10, 20 MG/KG IN CORN OIL 5D/WK FOR 103 WK (STUDY DURATION: 105 WK), 10, 20 MG/KG IN CORN OIL 5D/WK FOR 103 WK (STUDY DURATION: 105 WK), Tumor Site: Type of Lesion: ADRENAL MEDULLA: PHEOCHROMOCYTOMA, ADRENAL MEDULLA: PHEOCHROMOCYTOMA, BENIGN, COMPLEX OR MALIGNANT, KIDNEY: RENAL TUBULE, Tumor Site: Type of Lesion: ADRENAL MEDULLA: PHEOCHROMOCYTOMA, ADRENAL MEDULLA: PHEOCHROMOCYTOMA, BENIGN, COMPLEX OR MALIGNANT, KIDNEY: RENAL TUBULE) “active; positive”; (Species: RAT, Strain/Sex: OSBORNE-MENDEL/FEMALE, Route: GAVAGE, 212, 423 MG/KG, TWA FOR 44 WK, 212, 423 MG/KG, TWA FOR 44 WK) “inactive; negative”; (Species: RAT, Strain/Sex: OSBORNE-MENDEL/MALE, Route: GAVAGE, 212, 423 MG/KG, TWA FOR 44 WK, 212, 423 MG/KG, TWA FOR 44 WK) “inactive; negative”.

Consider `COc1nn(CSP(=S)(OC)OC)c(=O)s1`, for which the carcinogen call was “inactive; negative” (Species: DOG, Strain/Sex: BEAGLE/FEMALE, Route: ORAL, 0.5, 2, 4, 40, 140 PPM IN DIET FOR 1 YR (STUDY DURATION: 1 YR), 0.5, 2, 4, 40, 140 PPM IN DIET FOR 1 YR (STUDY DURATION: 1 YR)) and “inactive; negative” (Species: DOG, Strain/Sex: BEAGLE/MALE, Route: ORAL, 0.5, 2, 4, 40, 140 PPM IN DIET FOR 1 YR (STUDY DURATION: 1 YR), 0.5, 2, 4, 40, 140 PPM IN DIET FOR 1 YR (STUDY DURATION: 1 YR)).

With `CC[N+]([O-])=NC`, the carcinogen call (Species: RAT, Strain/Sex: F344/MALE, Route: ORAL, 12, 48 MG/ML IN A NEUTRAL DEIONIZED DRINKING WATER SOLUTION 5 D/WK FOR 30 WK (TOTAL DOSE 36; 115 MG) (STUDY DURATION:, 12, 48 MG/ML IN A NEUTRAL DEIONIZED DRINKING WATER SOLUTION 5 D/WK FOR 30 WK (TOTAL DOSE 36; 115 MG) (STUDY DURATION:, Tumor Site: Type of Lesion: LIVER: CARCINOMA, HEMANGIOSARCOMA, COLON: ADENOCARCINOMA, ADENOMA, ILEUM: TUMOR, Tumor Site: Type of Lesion: LIVER: CARCINOMA, HEMANGIOSARCOMA, COLON: ADENOCARCINOMA, ADENOMA, ILEUM: TUMOR) is “active; positive”.

As to `COC(=O)N(C(=O)N1CO[C@@]2(C(=O)OC)Cc3cc(Cl)ccc3C2=N1)c1ccc(OC(F)(F)F)cc1`, the carcinogen call (Species: Mouse, Strain/Sex: Crl:CD-1(ICR)BR/Female (70/Group), Route: Oral, 20, 100, 125/150/200 ppm for 18 mo, study duration 18 mo, 20, 100, 125/150/200 ppm for 18 mo, study duration 18 mo) was “inactive; negative” and the carcinogen call (Species: Mouse, Strain/Sex: Crl:CD-1(ICR)BR/Male (70/Group), Route: Oral, 20, 100, 125/150/200 ppm for 18 mo, study duration 18 mo, 20, 100, 125/150/200 ppm for 18 mo, study duration 18 mo) was “inactive; negative”.

Take `O=NN1CC=CC[C@H]1c1cccnc1`: the carcinogen call was “inactive; negative” (Species: RAT, Strain/Sex: F344/FEMALE, Route: SUBCUTANEOUS, 1, 3, 9 MMOL/KG BW (TOTAL DOSE) WITH SUBDOSES GIVEN 3/WK FOR 20 WK WITH A 2 WK INTERRUPTION AFTER 7 WK (STUDY DURATIO, 1, 3, 9 MMOL/KG BW (TOTAL DOSE) WITH SUBDOSES GIVEN 3/WK FOR 20 WK WITH A 2 WK INTERRUPTION AFTER 7 WK (STUDY DURATIO) and “inactive; negative” (Species: RAT, Strain/Sex: F344/MALE, Route: SUBCUTANEOUS, 1, 3, 9 MMOL/KG BW (TOTAL DOSE) WITH SUBDOSES GIVEN 3/WK FOR 20 WK WITH A 2 WK INTERRUPTION AFTER 7 WK (STUDY DURATIO, 1, 3, 9 MMOL/KG BW (TOTAL DOSE) WITH SUBDOSES GIVEN 3/WK FOR 20 WK WITH A 2 WK INTERRUPTION AFTER 7 WK (STUDY DURATIO).

For `CCCCCl`, the carcinogen call by setting is: (Species: MOUSE, Strain/Sex: B6C3F1/FEMALE, Route: GAVAGE, 250, 500 MG/KG IN CORN OIL 5 D/WK FOR 103 WK, 250, 500 MG/KG IN CORN OIL 5 D/WK FOR 103 WK) “inactive; negative”; (Species: MOUSE, Strain/Sex: B6C3F1/MALE, Route: GAVAGE, 500, 1000 MG/KG IN CORN OIL 5 D/WK FOR 103 WK, 500, 1000 MG/KG IN CORN OIL 5 D/WK FOR 103 WK) “inactive; negative”; (Species: RAT, Strain/Sex: F344/FEMALE, Route: GAVAGE, 60, 120 MG/KG IN CORN OIL 5 D/WK FOR 103 WK, 60, 120 MG/KG IN CORN OIL 5 D/WK FOR 103 WK) “inactive; negative”; (Species: RAT, Strain/Sex: F344/MALE, Route: GAVAGE, 60, 120 MG/KG IN CORN OIL 5 D/WK FOR 103 WK, 60, 120 MG/KG IN CORN OIL 5 D/WK FOR 103 WK) “inactive; negative”.

Consider `CC1=C(C(=O)Nc2ccccc2)SCCO1`, for which the carcinogen call is, setting by setting: (Species: Mouse, Strain/Sex: Charles River/Female (50 per group in experimental animals; 75 controls), Route: Oral, 50, 2,500, 5,000 ppm in diet for 19 mo, 50, 2,500, 5,000 ppm in diet for 19 mo) “inactive; negative (purity >99%; study details not given in source)”; (Species: Mouse, Strain/Sex: Charles River/Male (50 per group in experimental animals; 75 controls), Route: Oral, 50, 2,500, 5,000 ppm in diet for 19 mo, 50, 2,500, 5,000 ppm in diet for 19 mo, Tumor Site: Type of Lesion: LUNG, Pulmonary adenomas and alveolar-bronchiolar adenomas (34% in high dose group vs 17% in controls; significant), Tumor Site: Type of Lesion: LUNG, Pulmonary adenomas and alveolar-bronchiolar adenomas (34% in high dose group vs 17% in controls; significant)) “active; positive (purity >99%; study details not given in source)”; (Species: Rat, Strain/Sex: Crl:CD SD/Female (50 per group), Route: Oral, 20, 300, 600 ppm in diet for 102 wk, 20, 300, 600 ppm in diet for 102 wk) “inactive; negative (purity 97.7%; study details not given in source)”; (Species: Rat, Strain/Sex: Crl:CD SD/Male (50 per group), Route: Oral, 20, 200, 400 ppm in diet for 102 wk, 20, 200, 400 ppm in diet for 102 wk) “inactive; negative (purity 97.7%; study details not given in source)”.

With `c1ccc2c(c1)Oc1ccccc1O2`, the carcinogen call by setting is: (Species: MOUSE, Strain/Sex: B6C3F1/FEMALE, Route: ORAL, 5000, 10000 PPM IN DIET, 5000, 10000 PPM IN DIET) “inactive; negative”; (Species: MOUSE, Strain/Sex: B6C3F1/MALE, Route: ORAL, 5000, 10000 PPM IN DIET, 5000, 10000 PPM IN DIET) “inactive; negative”; (Species: RAT, Strain/Sex: OSBORNE-MENDEL/FEMALE, Route: ORAL, 5000, 10000 PPM IN DIET, 5000, 10000 PPM IN DIET) “inactive; negative”; (Species: RAT, Strain/Sex: OSBORNE-MENDEL/MALE, Route: ORAL, 5000, 10000 PPM IN DIET, 5000, 10000 PPM IN DIET) “inactive; negative”.
